The assay relates to ATDC5 cells. Briefly: IGF1 stimulated MMP-9/MMP-13 expression in chondrocytes (quantitative real-time PCR). In kind it is cell-based. The settings on record: preliminary dose finding experiments, free inhibitor, data not shown. Here is the method: Here, we investigated the therapeutic role of the IGF1R inhibitor (NVP-AEW541) in PTOA development. NVP-AEW541 (IGF1Ri) was incorporated into the polyethylene glycol dimethacrylate (PEG-DMA) hydrogel carriers (microrods) for prolonged local delivery in the joint space following ACL rupture (ACLR). […] The left knee served as the control (CON). 1 day after the TCO, vehicle (Veh) or microrods loaded with inhibitor (IGF1Ri/rod) was injected into the injured knee. […] As determined by μCT, compared with the CON knee, ACLR decreased BV/TV (24%) in the subchondral bone, while the IGF1Ri/rod treatment (Tx) prevented the bone loss. […] As indicated by IHC, ACLR increased the number of PCNA positive articular chondrocytes and MMP-13 production in the Veh-treated injured knee, but these effects were blunted in the IGF1Ri-treated injured knee. Moreover, ACLR increased the production of VEGF, resulting in vessel formation within articular cartilage (as indicated by CD31) in the Veh -treated injured knee, but these effects were blocked in the IGF1Ri-treated injured knee.
FIG. 7. […] The mRNA levels of MMP-9 (upper panel) and MMP-13 (lower panel) were determined by quantitative real-time PCR. […] Results are expressed as percentage of L-19 (house keeper gene) expression (mean±SD) of triplicate determinations. *: p<0.05 IGF-1 treated cultures vs. vehicle treated cultures.
In general terms: Quantitative PCR measures a nucleic acid by following its amplification.

Turning to `Cl.Cl.Nc1ncnc2c1c(-c1cccc(OCc3ccccc3)c1)cn2[C@H]1C[C@@H](CN2CCC2)C1` [NVP-AEW541, 7-[cis-3-(1-azetidinylmethyl)cyclobutyl]-5-[3-(phenylmethoxy)phenyl]-7H-pyrrolo[2,3-d]pyrimidin-4-amine, dihydrochloride], the “blocking IGF1 stimulated MMP9 and MMP13 expression” value is reported as “highly effective”.

The values are drawn from patent US20210369714A1, “Prevention and Treatment of Osteoarthritis by Inhibition of Insulin Growth Factor-1 Signaling” (The Regents of the University of California, priority 2018, published 2021).
